Consider 13 compounds from US12448372B2, “Class of triaromatic compounds targeting bifunctional phosphorylation site of STAT3 and applications thereof” (SHANGHAI YUYAO BIOTECH LTD., priority 2019, dated 2025).

Experiment [1] concerns the target STAT3 protein (Homo sapiens, UniProt P40763). Put plainly: Binding activity to STAT3 protein by microscale thermophoresis (MST). The following applies: purified STAT3 recombinant protein. The source says:
(1) Determination of Binding Activities of Compounds to STAT3 Protein by Microscale Thermophoresis (MST) Method
The microscale thermophoresis (MST) technique is a simple, rapid, and accurate method for quantifying biomolecular interactions. It can measure the movement of molecules in a microscopic temperature gradient field, as well as detect changes of molecular hydration shell, charge and size. When the Nanotemper microscale thermophoresis instrument locally heated by a infrared laser, molecules will move in a directional manner, then the molecular distribution ratio in the temperature gradient field are analyzed by a fluorescence to detect whether a small molecule compound binds to a target protein. The experimental operation is as follows: firstly, compounds to be tested are diluted in a gradient using MST test buffer, total 16 concentrations being configured; subsequently, the purified STAT3 recombinant protein is labeled using the HIS tag labeling kit, and the final concentration of the labeled protein is 100-200 nM; the labeled STAT3 proteins are well mixed with the diluted compounds and incubated and protected from light for 30 minutes; finally the samples were loaded by capillary tube and detected on the instrument. The binding constants (K^D) of small molecules to STAT3 protein were analyzed by Mo. analysis software.
In general terms: MST reads how a fluorescent partner responds to local heating, with and without ligand.

The test system of experiment [2] is HCC827. Description: Cell proliferation by MTS method, HCC827. Type of experiment: cell-based. The following applies: Table 1, HCC827, read-out: Tumour cell proliferative activity/IC50(nM) Lung Cancer HCC827. The source says:
(§1) (2) Detection of Cell Proliferation by MTS Method
(§2) The MTS assay is a method for indirectly determining the number of living cells via colourimetric method. MTS is a newly synthesised tetrazole compound that reflects cell viability, which can be reduced by succinate dehydrogenase in the mitochondria of living cells to an orange-coloured formazan with an absorbance of the reduced product measured at 490 nm being in proportion to the number of living cells, thus reflecting the cell viability. This assay can be used to evaluate the effect of the compound on the proliferation of pancreatic cancer cells, thereby determining the inhibitory effect of the compound on the proliferation of pancreatic cancer cells and to calculate the IC^50. Each cells were inoculated uniformly into a 96-well plate at a density of 1-20×10^3 cells/well, 100 μL per well, and placed in a constant temperature incubator until the cells adhered to the wall. The control group was added with the corresponding medium and the experimental groups were given different concentrations of the compound prepared by the examples of the present invention, and the cells were taken out 24-96 h after administration for observing the cell state under a microscope. Under light-proof conditions, MTS was added and well mixed, the mixture was placed in a constant temperature incubator at 37° C., and the light absorption value were measured using an enzyme marker at 490 nm and the experiment was repeated for three times, IC50 was calculated with GraphPad5 Prism software.
In general terms: Tetrazolium dyes change colour on reduction, which living cells bring about.

Experiment [3] deals with Huh7. Description: Cell proliferation by MTS method, Huh7. It counts as cell-based. The following applies: Table 1, Huh7, read-out: Tumour cell proliferative activity/IC50(nM) Liver Cancer Huh7.
Excerpt: as §1, §2

Experiment [4] relates to MKN45. Put plainly: Cell proliferation by MTS method, MKN45. It counts as cell-based. As to conditions: Table 1, MKN45, read-out: Tumour cell proliferative activity/IC50(nM) gastric Cancer MKN45.
Excerpt: as §1, §2

For experiment [5], the system named is Capan-2. Description: Cell proliferation by MTS method, Capan-2. Type of experiment: cell-based. The following applies: for improvement of anti-tumor proliferative activity over OPB51602 and IACS-010759: pancreatic cancer cells, FIG. 5B.
Excerpt: as §1, §2

Setting [6] is: Homo sapiens, Table 1, Capan-2, read-out: Tumour cell proliferative activity/IC50(nM) Pancreatic Cancer Capan-2.
Setting [7] is: Homo sapiens, Capan-2, FIG. 5B, read-out: IC50, inhibition of proliferation of pancreatic cancer cells.

Read-outs that look alike come from different tables or passages of the source.

STAT3 protein, sequence (P40763 whole entry): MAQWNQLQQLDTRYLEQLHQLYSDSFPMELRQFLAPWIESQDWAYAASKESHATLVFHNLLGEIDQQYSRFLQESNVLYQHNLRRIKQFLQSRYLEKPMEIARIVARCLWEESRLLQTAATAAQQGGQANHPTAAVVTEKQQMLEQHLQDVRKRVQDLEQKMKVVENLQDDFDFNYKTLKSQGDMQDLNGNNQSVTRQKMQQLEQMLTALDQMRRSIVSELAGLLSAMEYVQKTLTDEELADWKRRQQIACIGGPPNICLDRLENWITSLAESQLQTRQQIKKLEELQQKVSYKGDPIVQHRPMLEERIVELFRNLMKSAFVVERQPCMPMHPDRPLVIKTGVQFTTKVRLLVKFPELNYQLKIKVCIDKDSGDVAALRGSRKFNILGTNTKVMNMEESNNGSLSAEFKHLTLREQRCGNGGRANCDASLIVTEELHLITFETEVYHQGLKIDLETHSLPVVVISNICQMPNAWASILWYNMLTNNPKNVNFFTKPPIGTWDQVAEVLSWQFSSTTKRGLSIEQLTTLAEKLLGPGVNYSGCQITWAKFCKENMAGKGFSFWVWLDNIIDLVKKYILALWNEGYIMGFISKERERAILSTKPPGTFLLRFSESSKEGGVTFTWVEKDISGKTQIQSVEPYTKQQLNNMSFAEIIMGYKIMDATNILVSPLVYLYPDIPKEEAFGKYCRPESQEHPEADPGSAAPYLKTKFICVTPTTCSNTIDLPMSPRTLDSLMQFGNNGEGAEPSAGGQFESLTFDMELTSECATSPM

What is called Kd is a measure of binding affinity in units of concentration. Consider `Cn1c(C(=O)N2CCN(Cc3ccc(OCC(F)(F)F)cc3)CC2)cc2ccc(Oc3cnc(-c4nc(-c5ccccc5)no4)cn3)cc21` [Example 1, 1-methyl-(6-((5-(3-phenyl-1,2,4-oxadiazol-5-yl)pyrazin-2-yl)oxy)-1H-indol-2-yl)(4-(4-(2,2,2-trifluoroethoxy)benzyl)piperazin-1-yl)methanone], for which the Kd in experiment [1] is less than 10 nM. The IC50 in experiment [2] is less than 10 nM; in experiment [3], less than 10 nM; in experiment [4], less than 10 nM; in experiment [5] (Table 1, Capan-2, read-out: Tumour cell proliferative activity/IC50(nM) Pancreatic Cancer Capan-2), less than 10 nM.
For `Cn1c(C(=O)N2CCN(Cc3ccc(OCC(F)(F)F)cc3)CC2)cc2ccc(Oc3cnc(-c4nc(-c5ccc(F)cc5)no4)cn3)cc21` [Example 2, (6-((5-(3-(4-fluorophenyl)-1,2,4-oxadiazol-5-yl)pyrazin-2-yl)oxy)-1-methyl-1H-indol-2-yl)(4-(4-(2,2,2-trifluoroethoxy)benzyl)piperazin-1-yl)methanone], the Kd in experiment [1] is less than 10 nM. In addition, the IC50 in experiment [2] (Homo sapiens) is less than 10 nM; in experiment [3] (Homo sapiens, Huh-7), less than 10 nM; in experiment [4] (Homo sapiens, MKN-45), less than 10 nM; in experiment [5] (setting [6]), less than 10 nM.
For the compound `Cn1c(C(=O)N2CCN(Cc3ccc(OCC(F)(F)F)cc3)CC2)cc2ccc(Oc3cnc(-c4nc(-c5ccccc5F)no4)cn3)cc21` [Example 3, (6-((5-(3-(2-fluorophenyl)-1,2,4-oxadiazol-5-yl)pyrazin-2-yl)oxy)1-methyl-1H-indol-2-yl)(4-(4-(2,2,2-trifluoroethoxy)benzyl)piperazin-1-yl)methanone], the dissociation constant Kd in experiment [1] was less than 10 nM. In addition, the IC50 in experiment [2] (Homo sapiens) was less than 10 nM; in experiment [3] (Homo sapiens, Huh-7) it was less than 10 nM; in experiment [4] (Homo sapiens, MKN-45), less than 10 nM; in experiment [5] (setting [6]) it was less than 10 nM.
`Cn1c(C(=O)N2CCN(Cc3ccc(OCC(F)(F)F)cc3)CC2)cc2ccc(Oc3cnc(-c4nc(-c5cccc(F)c5)no4)cn3)cc21` [Example 4, (6-((5-(3-(3-fluorophenyl)-1,2,4-oxadiazol-5-yl)pyrazin-2-yl)oxy)1-methyl-1H-indol-2-yl)(4-(4-(2,2,2-trifluoroethoxy)benzyl)piperazin-1-yl)methanone]: in experiment [1], the dissociation constant (Kd) is less than 10 nM. The IC50 in experiment [2] (Homo sapiens) is less than 10 nM; in experiment [3] (Homo sapiens, Huh-7), less than 10 nM; in experiment [4] (Homo sapiens, MKN-45), less than 10 nM; in experiment [5] (setting [6]), less than 10 nM.
Take `COc1ccc(-c2noc(-c3cnc(Oc4ccc5cc(C(=O)N6CCN(Cc7ccc(OCC(F)(F)F)cc7)CC6)n(C)c5c4)cn3)n2)cc1` [Example 5, (6-((5-(3-(4-methoxyphenyl)-1,2,4-oxadiazol-5-yl)pyrazin-2-yl)oxy)1-methyl-1H-indol-2-yl)(4-(4-(2,2,2-trifluoroethoxy)benzyl)piperazin-1-yl)methanone]: the Kd in experiment [1] was less than 10 nM. Besides, the IC50 in experiment [2] (Homo sapiens) was less than 10 nM; in experiment [3] (Homo sapiens, Huh-7) it was less than 10 nM; in experiment [4] (Homo sapiens, MKN-45), less than 10 nM; in experiment [5] (setting [6]), less than 10 nM.
As for `Cn1c(C(=O)N2CCN(Cc3ccc(OCC(F)(F)F)cc3)CC2)cc2ccc(Oc3cnc(-c4nc(-c5ccccc5C(F)(F)F)no4)cn3)cc21` [Example 7, (6-((5-(3-(2-(trifluoromethyl)phenyl)-1,2,4-oxadiazol-5-yl)pyrazin-2-yl)oxy)-1-methyl-1H-indol-2-yl)(4-(4-(2,2,2-trifluoroethoxy)benzyl)piperazin-1-yl)methanone], in experiment [1], the Kd was less than 1 nM. In addition, the IC50 is less than 1 nM in experiment [2] (Homo sapiens); less than 1 nM in experiment [3] (Homo sapiens, Huh-7); less than 1 nM in experiment [4] (Homo sapiens, MKN-45); 0.49 nM in experiment [5] (setting [7]); less than 1 nM in experiment [5] (setting [6]). Besides, the “improvement of anti-tumor proliferative activity over OPB51602 and IACS-010759” value in experiment [5] worked out at 10 times.
With `Cn1c(C(=O)N2CCN(Cc3ccc(OCC(F)(F)F)cc3)CC2)cc2ccc(Oc3cnc(-c4nc(-c5cccc(C(F)(F)F)c5)no4)cn3)cc21` [Example 8, (6-((5-(3-(3-(trifluoromethyl)phenyl)-1,2,4-oxadiazol-5-yl)pyrazin-2-yl)oxy)-1-methyl-1H-indol-2-yl)(4-(4-(2,2,2-trifluoroethoxy)benzyl)piperazin-1-yl)methanone], the Kd in experiment [1] was less than 1 nM. For the same compound, the IC50 is less than 1 nM in experiment [2] (Homo sapiens); less than 1 nM in experiment [3] (Homo sapiens, Huh-7); less than 1 nM in experiment [4] (Homo sapiens, MKN-45); 0.34 nM in experiment [5] (setting [7]); less than 1 nM in experiment [5] (setting [6]). Moreover, the “improvement of anti-tumor proliferative activity over OPB51602 and IACS-010759” value in experiment [5] was determined as 10 times.
Regarding `COc1ccccc1-c1noc(-c2cnc(Oc3ccc4cc(C(=O)N5CCN(Cc6ccc(OCC(F)(F)F)cc6)CC5)n(C)c4c3)cn2)n1` [Example 9, (6-((5-(3-(2-methoxyphenyl)-1,2,4-oxadiazol-5-yl)pyrazin-2-yl)oxy)-1-methyl-1H-indol-2-yl) (4-(4-(2,2,2-trifluoroethoxy)benzyl)piperazin-1-yl)methanone], the Kd in experiment [1] was less than 10 nM. Besides, the IC50 is less than 10 nM in experiment [2] (Homo sapiens); less than 10 nM in experiment [3] (Homo sapiens, Huh-7); less than 10 nM in experiment [4] (Homo sapiens, MKN-45); less than 10 nM in experiment [5] (setting [6]).
For the compound `COc1cccc(-c2noc(-c3cnc(Oc4ccc5cc(C(=O)N6CCN(Cc7ccc(OCC(F)(F)F)cc7)CC6)n(C)c5c4)cn3)n2)c1` [Example 10, (6-((5-(3-(3-methoxyphenyl)-1,2,4-oxadiazol-5-yl)pyrazin-2-yl)oxy)-1-methyl-1H-indol-2-yl) (4-(4-(2,2,2-trifluoroethoxy)benzyl)piperazin-1-yl)methanone], the Kd in experiment [1] is less than 10 nM. Also, the IC50 in experiment [2] (Homo sapiens) was less than 10 nM; in experiment [3] (Homo sapiens, Huh-7) it was less than 10 nM; in experiment [4] (Homo sapiens, MKN-45) it was less than 10 nM; in experiment [5] (setting [6]), less than 10 nM.
Consider `Cn1c(C(=O)N2CCN(Cc3ccc(OCC(F)(F)F)cc3)CC2)cc2ccc(Oc3cnc(-c4nc(-c5ccc(Cl)cc5)no4)cn3)cc21` [Example 11, (6-((5-(3-(4-chlorophenyl)-1,2,4-oxadiazol-5-yl)pyrazin-2-yl)oxy)-1-methyl-1H-indol-2-yl) (4-(4-(2,2,2-trifluoroethoxy)benzyl)piperazin-1-yl)methanone], for which, in experiment [1], the Kd is less than 10 nM. Further, the IC50 in experiment [2] (Homo sapiens) was less than 10 nM; in experiment [3] (Homo sapiens, Huh-7) it was less than 10 nM; in experiment [4] (Homo sapiens, MKN-45), less than 10 nM; in experiment [5] (setting [6]), less than 10 nM.
Regarding `Cn1c(C(=O)N2CCN(Cc3ccc(OCC(F)(F)F)cc3)CC2)cc2ccc(Oc3cnc(-c4nc(-c5ccc(Br)cc5)no4)cn3)cc21` [Example 12, (6-((5-(3-(4-bromophenyl)-1,2,4-oxadiazol-5-yl)pyrazin-2-yl)oxy)-1-methyl-1H-indol-2-yl) (4-(4-(2,2,2-trifluoroethoxy)benzyl)piperazin-1-yl)methanone], the Kd in experiment [1] is less than 10 nM. In addition, the IC50 in experiment [2] (Homo sapiens) was less than 10 nM; in experiment [3] (Homo sapiens, Huh-7), less than 10 nM; in experiment [4] (Homo sapiens, MKN-45) it was less than 10 nM; in experiment [5] (setting [6]), less than 10 nM.
Regarding `Cn1c(C(=O)N2CCN(Cc3ccc(OCC(F)(F)F)cc3)CC2)cc2ccc(Oc3cnc(-c4nc(-c5ccc(OC(F)(F)F)cc5)no4)cn3)cc21` [Example 13, (6-((5-(3-(4-(trifluoromethoxy)phenyl)-1,2,4-oxadiazol-5-yl)pyrazin-2-yl)oxy)-1-methyl-1H-indol-2-yl) (4-(4-(2,2,2-trifluoroethoxy)benzyl)piperazin-1-yl)methanone], the Kd in experiment [1] was less than 10 nM. Moreover, the IC50 in experiment [2] (Homo sapiens) is less than 10 nM; in experiment [3] (Homo sapiens, Huh-7) it was less than 10 nM; in experiment [4] (Homo sapiens, MKN-45) it was less than 10 nM; in experiment [5] (setting [6]), less than 10 nM.
On to `O=C(c1cc2ccc(Oc3cnc(-c4nc(-c5ccc(C(F)(F)F)cc5)no4)cn3)cc2[nH]1)N1CCN(Cc2ccc(OCC(F)(F)F)cc2)CC1` [Example 14, (6-((5-(3-(4-(trifluoromethyl)phenyl)-1,2,4-oxadiazol-5-yl)pyrazin-2-yl)oxy)-1H-indol-2-yl) (4-(4-(2,2,2-trifluoroethoxy)benzyl)piperazin-1-yl)methanone], for which, in experiment [1], the dissociation constant Kd was less than 100 nM. In addition, the IC50 in experiment [2] (Homo sapiens) was less than 100 nM; in experiment [3] (Homo sapiens, Huh-7) it was less than 100 nM; in experiment [4] (Homo sapiens, MKN-45) it was less than 100 nM; in experiment [5] (setting [6]), less than 100 nM.
